Tests used:
[1] = Solubility observations; type: physicochemical; details: aqueous, potentiometric titration conditions
Text: (§1) The three sulfonates are fully deprotonated under the experimental conditions used. The deprotonation constants of H9thqtcn-SO3^3+ are defined as Kai=[H9-iL]^(1-i) [H]^+/[H8-iL]^(2-i)+. Analysis of the potentiometric curves enabled precise determination of 6 deprotonation constants (pKa8=2.9(2), pKa7=5.34(5), pKa6=8.01(8), pKa5=8.78(1), pKa4=8.98(4), pKa3=10.25(2)), whereas it was possible only to obtain the sum pKa1+pKa2=(22.51(3)).
The elemental analyses of all the complexes are compatible with the presence of analytically pure [Ln(thqtcn)] species. These complexes are insoluble in all the commonly used laboratory solvents.
As hoped, this ligand results in Ln(III) complexes that are water-soluble at physiological pHs.

[2] = Stability of the Gd complex (pGd) by UV-visible spectrophotometry in HEPES buffer pH 7.4; type: physicochemical; details: pH 7.4, HEPES, [M]total=1 mM, [bpatcn]total=10 mM
Description: Appreciably, the interaction between the lanthanide ions and the ligand was monitored by UV-visible spectrophotometry for a representative ion of intermediate size, namely Gd in dilute aqueous solutions, buffered with HEPES at pH 7.4. The value of pGd (pM=−log [M]free at pH 7.4, [M]total=1 mM and [bpatcn]total=10 mM), which allows a simple and direct comparison of the stabilities of the complexes under physiological conditions, found for thqtcn-SO3^6−(19) is similar to the value reported for the gadolinium complexes of diethylenetriaminepentaacetic acid (dtpa) (pGd=19.6), which are widely acknowledged as non-toxic.

[3] = Potentiometric titration of the ligand with KOH: deprotonation constants; type: physicochemical; details: titration with KOH in KCl 0.1M, 298 K
Text: as §1

[4] = gadolinium complexes of dtpa; cited from earlier work

solubility of the ligand [1] | pGd (pM=-log [M]free) [2] | pKa3 [3] | pKa4 [3] | pKa5 [3] | pKa6 [3] | pKa7 [3] | pKa8 [3] | sum pKa1+pKa2 [3] | Compound | pGd (reported value) [4]
high solubility | 19 | 10.25(2) | 8.98(4) | 8.78(1) | 8.01(8) | 5.34(5) | 2.9(2) | 22.51(3) | 1,4,7-tris[2-(5-sulfo-8-hydroxyquinolinyl)methyl]-1,4,7-triaza-cyclononane [H6thqtcn-SO3] | –
– | – | – | – | – | – | – | – | – | O=C(O)CN(CCN(CC(=O)O)CC(=O)O)CCN(CC(=O)O)CC(=O)O [dtpa, diethylenetriaminepentaacetic acid] | 19.6
